According to patent US12448394B2, “Heterocyclic pyrazole derivatives as type III receptor tyrosine kinase inhibitors” (DEVELOPMENT CENTER FOR BIOTECHNOLOGY, priority 2019, dated 2025):

The compounds below were run against T1, FLT3-D835Y mutant kinase (Homo sapiens, UniProt P36888, D835Y) (assay: FLT3-D835Y mutant kinase assay (AlphaScreen)). Conditions: read-out: Ranking of IC50 values, FLT3-D835Y.
T1 construct: purchased SignalChem
T1 sequence (P36888 27-993 D835Y): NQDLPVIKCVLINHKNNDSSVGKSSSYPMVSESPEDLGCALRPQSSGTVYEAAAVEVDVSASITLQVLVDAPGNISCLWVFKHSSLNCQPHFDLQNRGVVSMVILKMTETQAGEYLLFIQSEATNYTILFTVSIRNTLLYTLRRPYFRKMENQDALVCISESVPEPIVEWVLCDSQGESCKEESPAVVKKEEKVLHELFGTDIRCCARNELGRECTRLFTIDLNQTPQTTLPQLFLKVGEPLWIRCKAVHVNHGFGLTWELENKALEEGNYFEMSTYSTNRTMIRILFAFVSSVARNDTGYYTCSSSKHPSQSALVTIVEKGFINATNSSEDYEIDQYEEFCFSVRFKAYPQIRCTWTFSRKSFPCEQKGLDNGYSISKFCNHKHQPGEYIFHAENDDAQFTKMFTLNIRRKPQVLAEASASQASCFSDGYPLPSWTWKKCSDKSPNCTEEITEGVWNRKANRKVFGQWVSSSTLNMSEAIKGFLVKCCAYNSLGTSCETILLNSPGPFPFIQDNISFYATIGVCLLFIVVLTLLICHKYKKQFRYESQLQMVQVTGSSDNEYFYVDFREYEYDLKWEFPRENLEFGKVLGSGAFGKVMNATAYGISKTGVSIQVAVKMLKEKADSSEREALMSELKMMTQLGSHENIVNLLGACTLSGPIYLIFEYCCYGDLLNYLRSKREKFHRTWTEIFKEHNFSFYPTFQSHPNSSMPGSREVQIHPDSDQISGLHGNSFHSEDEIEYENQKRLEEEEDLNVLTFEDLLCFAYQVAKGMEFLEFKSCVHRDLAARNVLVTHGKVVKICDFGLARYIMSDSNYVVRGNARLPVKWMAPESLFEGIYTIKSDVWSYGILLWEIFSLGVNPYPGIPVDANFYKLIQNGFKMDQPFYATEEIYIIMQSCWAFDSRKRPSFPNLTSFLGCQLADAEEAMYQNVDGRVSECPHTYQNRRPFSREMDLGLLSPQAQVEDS
Format: biochemical
Procedure, shortened: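 Recombinant FLT3-D835Y (1 ng) phosphorylated biotin-poly(Glu4:Tyr1) at 10 μM ATP, pH 7.0 MOPS buffer with 10 mM MgCl2, for 30 min at 30 °C, stopped with EDTA. Product was read by AlphaScreen. IC50 came from serial dilutions run in duplicate.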

Row | IC50 | SMILES
1 | < 1 nM | Cn1ncc2ccc(-c3n[nH]c4c3Cc3sc(-c5csc(CN6CCOCC6)c5)cc3-4)cc21 [Compound 52, 4-((4-(3-(1-methyl-1H-indazol-6-yl)-1,4-dihydro-thieno[2′,3′:4,5]cyclopenta [1,2-c]pyrazol-6-yl)thiophen-2-yl)methyl) morpholine]
2 | 1 to 10 nM | Cn1ncc2ccc(-c3n[nH]c4c3Cc3sc(-c5ccc(NC6CCOCC6)cc5)cc3-4)cc21 [Compound 72, N-(4-(3-(1-methyl-1H-indazol-6-yl)-1,4-dihydro-thieno[2′,3′:4,5]cyclopenta [1,2-c]pyrazol-6-yl)phenyl)tetrahydro-2H-pyran-4-amine]
3 | 1 to 10 nM | Cn1ncc2ccc(-c3n[nH]c4c3Cc3sc(-c5ccc(CN6CCOCC6)cc5)cc3-4)cc21 [Compound 8, 4-(4-(3-(1-methyl-1H-indazol-6-yl)-1,4-dihydro-thieno[2′,3′:4,5]cyclopenta [1,2-c]pyrazol-6-yl)benzyl) morpholine]
4 | < 1 nM | Cn1ncc2ccc(-c3n[nH]c4c3Cc3sc(-c5ccc(CN6CCCCC6=O)cc5)cc3-4)cc21 [Compound 61, 1-(4-(3-(l-methyl-1H-indazol-6-yl)-1,4-dihydro-thieno[2′,3′:4,5]cyclopenta [1,2-c]pyrazol-6-yl)benzyl)piperidin-2-one]
5 | < 1 nM | Cn1ncc2ccc(-c3n[nH]c4c3Cc3sc(-c5ccc(CCN6CCOCC6=O)cc5)cc3-4)cc21 [Compound 66, 4-(4-(3-(1-methyl-1H-indazol-6-yl)-1,4-dihydro-thieno[2′,3′:4,5]cyclopenta [1,2-c]pyrazol-6-yl)phenethyl)morpholin-3-one]
6 | < 1 nM | Cn1ncc2ccc(-c3n[nH]c4c3Cc3sc(-c5ccc(CN6CCOCC6)s5)cc3-4)cc21 [Compound 51, 4-((5-(3-(1-methyl-1H-indazol-6-yl)-1,4-dihydro-thieno[2′,3′:4,5]cyclopenta [1,2-c]pyrazol-6-yl)thiophen-2-yl)methyl) morpholine]
7 | 1 to 10 nM | CN1CCN(Cc2cccc(-c3cc4c(s3)Cc3c(-c5ccc6cnn(C)c6c5)n[nH]c3-4)c2)CC1 [Compound 14, 3-(1-methyl-1H-indazol-6-yl)-6-(3-((4-methylpiperazin-1-yl)methyl)phenyl)-1,4-dihydrothieno [2′,3′:4,5]cyclopenta[1,2-c] pyrazole]
8 | < 1 nM | Cn1ncc2ccc(-c3n[nH]c4c3Cc3sc(-c5ccc(C(=O)N6CCOCC6)cc5)cc3-4)cc21 [Compound 21, (4-(3-(1-methyl-1H-indazol-6-yl)-1,4-dihydro-thieno[2′,3′:4,5]cyclopenta [1,2-c]pyrazol-6-yl)phenyl) (morpholino)methanone]
